Reference: patent US20110245316A1, “PREVENTION OR DELAY OF ONSET OF ORAL MUCOSITIS” (SCICLONE PHARMACEUTICALS, INC., priority 2010, published 2011)
“Also recorded” adds a separate entry of the source.

Test system: oral mucositis in patients receiving chemoradiation for head and neck cancer
Assay: Phase 2 randomized, double-blind, placebo-controlled trial: onset of oral mucositis (WHO OM Scale) in patients receiving CT/RT
Type: in vivo, human
Details: for gastrostomy tube placement and use / unplanned office and emergency room visits: higher dose (0.1 mg/kg); for severe OM, percent of patients: subcutaneous 0.1 mg/kg (HD)
From the text: OM is a painful, debilitating, and costly toxicity of different chemoradiotherapy (CT/RT) regimens used to treat head and neck cancer. This trial is a phase 2, randomized, double-blind, dose-ranging, placebo-controlled three-arm study in patients receiving CT/RT for the treatment of head and neck cancer, to assess the safety and tolerability of γ-D-glutamyl-L-tryptophan (SCV-07) as well as its efficacy in delaying the onset of severe OM as assessed by the WHO Oral Mucositis Scale.
The WHO OM Scale is the standard, validated instrument used in clinical trials to measure OM: Grade 0=none; Grade 1=erythema and soreness, no ulcers; Grade 2=ulcers, able to eat a solid diet; Grade 3=ulcers; requires a liquid diet; Grade 4=ulcers, not able to tolerate a solid or liquid diet, requires IV or tube feeding.
59 eligible patients with recently diagnosed, treatment naïve, pathologically-confirmed, non-metastatic squamous cell carcinoma of the oral cavity, oropharynx, hypopharynx or larynx were enrolled and treated with a concomitant regimen of CT/RT consisting of a continuous course of external beam irradiation (IMRT eligible) with a minimum cumulative dose of 50 Gray (Gy) and cisplatin monotherapy administered using standard weekly or tri-weekly dosing regimens (80-100 mg/m^2 administered on Days 0, 21 and 42) or weekly (30-40 mg/m^2). At least two ‘at risk’ intraoral sites were included in the radiation fields and received a cumulative RT dose of at least 50 Gy. Subjects were equally randomized to receive either placebo or one of two doses of γ-D-glutamyl-L-tryptophan (0.02 or 0.1 mg/kg) on each radiation day for up to 7 weeks.
Tables 2-7 summarize the statistics for the Full Analysis Set “FAS” (57 subjects), and the completer population (52 subjects), with respect to delay of onset of severe oral mucositis. Also see FIGS. 1 and 2.
SCV-07 efficacy, dosing and scheduling parameters were assessed in hamster models of acute, fractionated and concomitant chemoradiation (CRT). […] A multicenter, prospective, blinded, randomized trial evaluated SCV-07's ability to alter OM in CRT-treated HNC patients (n=57). Cytokine and gene microarray analyses were performed for samples obtained before and on the last radiation day.

[1] = 0.10 mg/kg, Completer Population
[2] = 0.10 mg/kg, Completer Population, at 30-<35 Gy
[3] = 0.10 mg/kg, Completer Population, at 35-<40 Gy
[4] = 0.10 mg/kg, Completer Population, at 40-<45 Gy
[5] = 0.10 mg/kg, Completer Population, at 45-<50 Gy
[6] = 0.10 mg/kg, Completer Population, at 50-<55 Gy
[7] = 0.10 mg/kg, Completer Population, at 55-<60 Gy
[8] = 0.10 mg/kg, Completer Population, at 65-<70 Gy
[9] = 0.10 mg/kg, Completer Population, at ≧70 Gy
[10] = listed as γ-D-glutamyl-L-tryptophan, 0.1 mg/kg

N[C@H](CCC(=O)N[C@@H](Cc1c[nH]c2ccccc12)C(=O)O)C(=O)O [SCV-07, γ-D-glutamyl-L-tryptophan]
Cumulative Dose of RT (Gy) at Initial Onset of Ulcerative OM, Median [1]: 26 Gy | Cumulative Dose of RT (Gy) at Initial Onset of Ulcerative OM, Min [1]: 8 Gy | Cumulative Dose of Radiation (Gy) Prior to Initial Occurrence of Severe OM (Delay to Onset of Severe OM), K-M Estimate, Mean (SE) [1]: 56 (3.8) Gy | Cumulative Dose of Radiation (Gy) Prior to Initial Occurrence of Severe OM, K-M Estimate, Median (95% CI) [1]: 57 (51, NA) Gy | Cumulative Dose of Radiation (Gy) Prior to Initial Occurrence of Ulcerative OM (Delay to Onset of Ulcerative OM), K-M Estimate, Mean (SE) [1]: 30 (3.7) Gy | Cumulative Dose of Radiation (Gy) Prior to Initial Occurrence of Ulcerative OM, K-M Estimate, 25%-75% [1]: 19-46 Gy | Cumulative Dose of Radiation (Gy) Prior to Initial Occurrence of Ulcerative OM, K-M Estimate, Median (95% CI) [1]: 26 (19, 41) Gy | Time (Days) to Initial Occurrence of Sever OM, K-M Estimate, Mean (SE) [1]: 38 (2.5) Days | Time (Days) to Initial Occurrence of Sever OM, K-M Estimate, Median (95% CI) [1]: 43 (33, NA) Days | Time (Days) to Initial Occurrence of Ulcerative OM, K-M Estimate, 25%-7% [1]: 12 to 32 days | Time (Days) to Initial Occurrence of Ulcerative OM, K-M Estimate, Mean (SE) [1]: 20 (2.7) Days | Time (Days) to Initial Occurrence of Ulcerative OM, K-M Estimate, Median (95% CI) [1]: 16 (13, 31) Days | delay to onset of ulcerative OM (WHO score >1) as a function of cumulative radiation dose (0.10 mg/kg, Completer Population, FIG. 3): showed a delay to onset of OM | Cum. Percent of Subjects with Ulcerative OM (WHO > 1) (0.10 mg/kg, Completer Population, at 5-<10 Gy): 6% (1%, 37%) | Cum. Percent of Subjects with Ulcerative OM (WHO > 1) (0.10 mg/kg, Completer Population, at 10-<15 Gy): 6% (1%, 37%) | Cum. Percent of Subjects with Ulcerative OM (WHO > 1) (0.10 mg/kg, Completer Population, at 15-<20 Gy): 38% (19%, 65%) | Cum. Percent of Subjects with Ulcerative OM (WHO > 1) (0.10 mg/kg, Completer Population, at 20-<25 Gy): 50% (29%, 75%) | Cum. Percent of Subjects with Ulcerative OM (WHO > 1) (0.10 mg/kg, Completer Population, at 25-<30 Gy): 63% (40%, 85%) | Cum. Percent of Subjects with Severe OM (WHO > 2) [2]: 13% (3%, 41%) | Cum. Percent of Subjects with Ulcerative OM (WHO > 1) [2]: 69% (46%, 89%) | Cum. Percent of Subjects with Severe OM (WHO > 2) [3]: 13% (3%, 41%) | Cum. Percent of Subjects with Ulcerative OM (WHO > 1) [3]: 69% (46%, 89%) | Cum. Percent of Subjects with Severe OM (WHO > 2) [4]: 19% (6%, 48%) | Cum. Percent of Subjects with Ulcerative OM (WHO > 1) [4]: 75% (53%, 92%) | Cum. Percent of Subjects with Severe OM (WHO > 2) [5]: 25% (10%, 54%) | Cum. Percent of Subjects with Ulcerative OM (WHO > 1) [5]: 75% (53%, 92%) | Cum. Percent of Subjects with Severe OM (WHO > 2) [6]: 38% (19%, 65%) | Cum. Percent of Subjects with Ulcerative OM (WHO > 1) [6]: 94% (75%, 100%) | Cum. Percent of Subjects with Severe OM (WHO > 2) [7]: 56% (34%, 80%) | Cum. Percent of Subjects with Ulcerative OM (WHO > 1) [7]: 94% (75%, 100%) | Cum. Percent of Subjects with Ulcerative OM (WHO > 1) (0.10 mg/kg, Completer Population, at 60-<65 Gy): 94% (75%, 100%) | Cum. Percent of Subjects with Severe OM (WHO > 2) (0.10 mg/kg, Completer Population, at 60->65 Gy): 64% (41%, 86%) | Cum. Percent of Subjects with Severe OM (WHO > 2) [8]: 73% (48%, 92%) | Cum. Percent of Subjects with Ulcerative OM (WHO > 1) [8]: 94% (75%, 100%) | Cum. Percent of Subjects with Ulcerative OM (WHO > 1) (0.10 mg/kg, Completer Population, at <5 Gy): 0% (0%, 0%) | Cum. Percent of Subjects with Severe OM (WHO > 2) (0.10 mg/kg, Completer Population, at <30 Gy): 6% (1%, 37%) | Cum. Percent of Subjects with Severe OM (WHO > 2) [9]: 73% (48%, 92%) | Cum. Percent of Subjects with Ulcerative OM (WHO > 1) [9]: 94% (75%, 100%) | Cumulative Dose of RT (Gy) at Initial Onset of Severe OM, Max (0.10 mg/kg, FAS population): 72 Gy | Cumulative Dose of RT (Gy) at Initial Onset of Severe OM, Mean (SD) (0.10 mg/kg, FAS population): 54 (15.6) Gy | Cumulative Dose of RT (Gy) at Initial Onset of Severe OM, Median (0.10 mg/kg, FAS population): 56 Gy | Cumulative Dose of RT (Gy) at Initial Onset of Severe OM, Min (0.10 mg/kg, FAS population): 20 Gy | Cumulative Dose of Radiation (Gy) Prior to Initial Occurrence of Severe OM (Delay to Onset of Severe OM), K-M Estimate, Mean (SE) (0.10 mg/kg, FAS population): 54 (3.9) Gy | Cumulative Dose of Radiation (Gy) Prior to Initial Occurrence of Severe OM, K-M Estimate, Median (95% CI) (0.10 mg/kg, FAS population): 56 (46, 70) Gy | Time (Days) to Initial Occurrence of Severe OM, K-M Estimate, Mean (SE) (0.10 mg/kg, FAS population): 37 (2.7) Days | Time (Days) to Initial Occurrence of Severe OM, K-M Estimate, Median (95% CI) (0.10 mg/kg, FAS population): 40 (32, NA) Days | Cum. Percent of Subjects with Severe OM (WHO > 2) (0.10 mg/kg, FAS population, at 30-<35 Gy): 18% (6%, 45%) | Cum. Percent of Subjects with Severe OM (WHO > 2) (0.10 mg/kg, FAS population, at 35-<40 Gy): 18% (6%, 45%) | Cum. Percent of Subjects with Severe OM (WHO > 2) (0.10 mg/kg, FAS population, at 40-<45 Gy): 24% (10%, 51%) | Cum. Percent of Subjects with Severe OM (WHO > 2) (0.10 mg/kg, FAS population, at 45-<50 Gy): 29% (13%, 57%) | Cum. Percent of Subjects with Severe OM (WHO > 2) (0.10 mg/kg, FAS population, at 50-<55 Gy): 41% (22%, 67%) | Cum. Percent of Subjects with Severe OM (WHO > 2) (0.10 mg/kg, FAS population, at 55-<60 Gy): 59% (37%, 81%) | Cum. Percent of Subjects with Severe OM (WHO > 2) (0.10 mg/kg, FAS population, at 60-<65 Gy): 66% (44%, 87%) | Cum. Percent of Subjects with Severe OM (WHO > 2) (0.10 mg/kg, FAS population, at 65-<70 Gy): 74% (51%, 93%) | Cum. Percent of Subjects with Severe OM (WHO > 2) (0.10 mg/kg, FAS population, at >30 Gy): 6% (1%, 35%) | Cum. Percent of Subjects with Severe OM (WHO > 2) (0.10 mg/kg, FAS population, at ≧70 Gy): 74% (51%, 93%) | delay to onset of severe OM (WHO score >2) as a function of cumulative radiation dose (0.10 mg/kg, Full Analysis Set, FIG. 1): showed a delay to onset of OM | delay to onset of severe OM (WHO score >2) as a function of cumulative radiation dose (0.10 mg/kg, patients that completed radiation therapy, FIG. 2): showed a delay to onset of OM | treatment breaks (HD (0.1 mg/kg)): fewer | Cox regression analysis of time to UOM initial occurrence, decrease vs. placebo (HD SCV-07 cohort vs. placebo): 52% | Number of Days that Patients used the G-Tube (SCV-07 high dose): 44 days | Percent of Patients with G-Tube Placement (SCV-07 high dose (n = 3/20)): 18% | Number of Days that Patients used the G-Tube (SCV-07 low dose): 57 days | Percent of Patients with G-Tube Placement (SCV-07 low dose (n = 4/20)): 20% | delay to onset of ulcerative OM (WHO scale, grades 2 to 4) (high dose (0.1 mg/kg) vs placebo, 0.1 mg/kg): more pronounced clinical benefit; also recorded: delayed | delay to onset of ulcerative OM (WHO scale, grades 2 to 4) (high dose (0.1 mg/kg) vs placebo, listed as γ-D-glutamyl-L-tryptophan, 0.1 mg/kg): showed a trend towards delay in onset | days of gastrostomy tube use (high dose vs placebo and low dose): fewer days | delay to severe OM (WHO scale, grades 3 and 4), primary endpoint (higher dose (0.1 mg/kg) vs placebo, 0.1 mg/kg): showed a trend towards delay to severe OM; also recorded: delayed severe OM vs. placebo | delay to severe OM (WHO scale, grades 3 and 4), primary endpoint (higher dose (0.1 mg/kg) vs placebo, listed as γ-D-glutamyl-L-tryptophan, 0.1 mg/kg): showed a trend towards delay in onset | gastrostomy tube placement and use (0.1 mg/kg): fewer G-tubes placed | unplanned office and emergency room visits (0.1 mg/kg): fewer | gastrostomy tube placement and use [10]: less reliance on gastrostomy tube placement and use | unplanned office and emergency room visits [10]: fewer unplanned office and emergency room visits | delay to onset of ulcerative OM (WHO scale, grades 2 to 4) (low dose (0.02 mg/kg) vs placebo): appeared similar or slightly better than placebo | delay to severe OM (WHO scale, grades 3 and 4), primary endpoint (low dose (0.02 mg/kg) vs placebo, 0.02 mg/kg): appeared to do worse than placebo and not | placement of a gastrostomy feeding tube (patients receiving SCV-07 vs placebo): less likely to require placement of a gastrostomy feeding tube | severe OM, percent of patients (at 50 Gy, placebo 42%): 29% | severe OM, percent of patients (at ≦40Gy, placebo 32%): 18%
